# Tested on: CAL-51
# Assay: drug sensitivity score (DSS), CellTiter-Blue viability (DSS (AUC-based score)); higher = stronger viability inhibition; extreme values may be limits of the assay
# Details: incubation time: 72 h
# Procedure, shortened: (§1)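 Breast cancer cell lines in 20 µl suspension were seeded into 384-well plates already holding compound in a 5- or 9-concentration series and incubated for 72 h. CellTiter-Blue reagent (2.5 µl per well) was then added for 2 h at 37 °C, and fluorescence was read at 560/590 nm. Values on each plate were normalised to 0.1 % DMSO and a positive kill control. The drug sensitivity score is the area under the fitted dose-response curve.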
row,Structure (SMILES),drug sensitivity score
1,C[C@@H](C(=O)O)c1ccc(-c2ccccc2)c(F)c1 [Tarenflurbil],0
2,Cn1nnc2c(C(N)=O)ncn2c1=O [Temozolomide],0
3,CC[C@@H]1C(=O)N(C)c2cnc(Nc3ccc(C(=O)N[C@H]4CC[C@H](N5CCN(CC6CC6)CC5)CC4)cc3OC)nc2N1C(C)C [Volasertib],17.6

# Tested on: Hs578T
# Assay: as above
# Details: incubation time: 72 h
# Procedure, shortened: as §1
row,Structure (SMILES),drug sensitivity score
1,C[C@@H](C(=O)O)c1ccc(-c2ccccc2)c(F)c1 [Tarenflurbil],0
2,Cn1nnc2c(C(N)=O)ncn2c1=O [Temozolomide],0
3,CC[C@@H]1C(=O)N(C)c2cnc(Nc3ccc(C(=O)N[C@H]4CC[C@H](N5CCN(CC6CC6)CC5)CC4)cc3OC)nc2N1C(C)C [Volasertib],11.3

# Tested on: HCC1143
# Assay: as above
# Details: incubation time: 72 h
# Procedure, shortened: as §1
row,Structure (SMILES),drug sensitivity score
1,C[C@@H](C(=O)O)c1ccc(-c2ccccc2)c(F)c1 [Tarenflurbil],0
2,Cn1nnc2c(C(N)=O)ncn2c1=O [Temozolomide],0
3,CC[C@@H]1C(=O)N(C)c2cnc(Nc3ccc(C(=O)N[C@H]4CC[C@H](N5CCN(CC6CC6)CC5)CC4)cc3OC)nc2N1C(C)C [Volasertib],13.4

# Tested on: DU-4475
# Assay: as above
# Details: incubation time: 72 h
# Procedure, shortened: as §1
row,Structure (SMILES),drug sensitivity score
1,C[C@@H](C(=O)O)c1ccc(-c2ccccc2)c(F)c1 [Tarenflurbil],0
2,Cn1nnc2c(C(N)=O)ncn2c1=O [Temozolomide],0
3,CC[C@@H]1C(=O)N(C)c2cnc(Nc3ccc(C(=O)N[C@H]4CC[C@H](N5CCN(CC6CC6)CC5)CC4)cc3OC)nc2N1C(C)C [Volasertib],14.7

# Source: the supplement of paper PMC4862054
